# From US8071650B2, “Thiourea derivatives and the pharmaceutical compositions containing the same” (Pacific Corporation, priority 2000, dated 2011)
# Where two headings read alike, the source gives them in different places.
# Columns and labels:
# vanilloid receptor = target: T1, vanilloid receptor (Rattus norvegicus, UniProt O35433); experiment: 45Ca influx test, antagonistic activity against capsaicin (Calcium Uptake Test, IC50); assay type: cell-based
# T1 construct: DRG nerve cells from the primary culture of 2-3 days were equilibrated; endogenous in cells; host or cells: primary culture of dorsal root ganglion neurons from neonatal SD rats
# Protocol: 1) Separation of Spinal Dorsal Root Ganglia (DRG) in Newborn Rats and Primary Culture Thereof
# Neonatal(2-day old or younger than 2-day old) SD rats were put in ice for 5 minutes to anesthetize and disinfected with 70% ethanol. […] The DRG were incubated sequentially at 37° C. for 30 min in 200 U/ml collagenase and 2.5 mg/ml trypsin, separately. The ganglia were washed twice with DME/F12 medium supplemented with 10% horse serum, triturated through a fire-polished Pasteur pipette, filtered through Nitex 40 membrane to obtain single cell suspension. This was subjected to centrifugation, then re-suspended in cell culture medium at certain level of cell density. As the cell culture medium, DME/F12 medium supplemented with 10% horse serum, diluted 1:1 with identical medium conditioned by C6 glioma cells (2 days on a confluent monolayer) was used, and NGF(Nerve Growth Factor) was added to final concentration of 200 ng/ml. After the cells were grown 2 days in medium where cytosine arabinoside (Ara-C, 100 μM) was added to kill dividing nonneuronal cells, medium was changed to one without Ara-C. The resuspended cells were plated at a density of 1500-1700 neurons/well onto Terasaki plates previously coated with 10 μg/ml poly-D-ornithine.
# 2) ^45Ca Influx Experiments
# DRG nerve cells from the primary culture of 2-3 days were equilibrated by washing 4 times with HEPES (10 mM, pH 7.4)-buffered Ca^2+, Mg^2+-free HBSS (H-HBSS). The solution in each well was removed from the individual well. Medium containing the test compound plus capsaicin (final concentration 0.5 μM) and ^45Ca (final concentration 10 μCi/ml) in H-HBSS was added to each well and incubated at room temperature for 10 min. Terasaki plates were washed six times with H-HBSS and dried in an oven. To each well, 0.3% SDS (10 μl) was added to elute ^45Ca. After the addition of […] of scintillation cocktail into each well, the amount of ^45Ca influx into neuron was measured by counting radioactivity.
# Male ICR mice [1] = experiment: Analgesic activity test: mouse writhing test by inducing with phenyl-p-quinone; assay type: in vivo; conditions: ip, 30 min before phenyl-p-quinone, read-out: Analgesic effect (% Inhibition); for inhibition in vivo at 10 mg/kg: dose 10 mg/kg intraperitoneally; for inhibition in vivo at 3 mg/kg: dose 3 mg/kg intraperitoneally
# Protocol: (3) Analgesic Activity Test: Mouse Writhing Test by Inducing with phenyl-p-quinone
# Male ICR mice (mean body weight 25 g) were maintained in a controlled lighting environment (12 h on/12 h off) for experiment. Animals received an intraperitoneal injection of 0.3 ml of the chemical irritant phenyl-p-quinone (dissolved in saline containing 5% ethanol to be a dose of 4.5 mg/kg) and 6 min later, the number of abdominal constrictions was counted in the subsequent 6 min period. Animals (10 animals/group) received 0.2 ml of test compounds solution in vehicle of ethanol/Tween 80/saline (10/10/80) intraperitoneally 30 min before the injection of phenyl-p-quinone. A reduction in the number of writhes responding to the test drug compound relative to the number responding in saline control group was considered to be indicative of an analgesic effect Analgesic effect was calculated by % inhibition equation (% inhibition=(C−T)/C×100), wherein C and T represent the number of writhes in control and compound-treated group, respectively (Table 2).
# Male ICR mice [2] = experiment: Antiinflammatory activity test: TPA-induced mouse ear edema test; assay type: in vivo; conditions: dose 1 mg/ear topically, ear weight 24 h after TPA
# Protocol: (4) Antiinflammatory Activity Test: TPA(12-O-tetraecanoylphorbol 13-acetate)-induced mouse ear edema test
# Male ICR mice(body weight 25-30 g), 10 animals/group, were treated topically on the right ear with 30 μl of TPA (2.5 μg) solution in acetone and after 15 min, 30 μl of acetone or test compound solution in acetone was applied topically. After six hours, an identical treatment was applied again. After twenty four hours following the treatment of TPA, the animals were sacrificed and ear tissue was dissected using 6 mm-diameter punch. Ear tissue dissected were weighed to the nearest 0.1 mg on an electrobalance. The increased weight of the tissue compared to control group was considered as an index of inflammation. The percent inhibition is defined by the following equation:
# % inhibition=(C−T)/C×100, wherein C and T represent an increase of ear weight in TPA-treated and TPA+drug-treated group, respectively (Table 3).
# Male SD rats = experiment: Ulcer test: ethanol-induced anti-ulcer test; assay type: in vivo, rat; conditions: dose 30 mg/kg orally, 1 hour before 99% ethanol
# Protocol: (5) Ulcer Test: Ethanol-induced Anti-ulcer Test
# Male SD rats (body weight 180-200 g), 5 animals/group, were fasted for 24 hours, and their stomaches were damaged. The rats were administered with 10 ml/kg of test drug suspended in 1% methylceflulose orally and, after 1 hour, 1 ml of 99% ethanol orally. After 1 hour without food and water, the rats were sacrificed by cervical dislocation and stomaches thereof were removed. The removed stomaches were incised along the greater curvature and opened.
# [3] = Table 1a, neonatal SD rat DRG neurons, inhibition of response to capsaicin 0.5 μM
# T1 sequence (O35433 whole entry): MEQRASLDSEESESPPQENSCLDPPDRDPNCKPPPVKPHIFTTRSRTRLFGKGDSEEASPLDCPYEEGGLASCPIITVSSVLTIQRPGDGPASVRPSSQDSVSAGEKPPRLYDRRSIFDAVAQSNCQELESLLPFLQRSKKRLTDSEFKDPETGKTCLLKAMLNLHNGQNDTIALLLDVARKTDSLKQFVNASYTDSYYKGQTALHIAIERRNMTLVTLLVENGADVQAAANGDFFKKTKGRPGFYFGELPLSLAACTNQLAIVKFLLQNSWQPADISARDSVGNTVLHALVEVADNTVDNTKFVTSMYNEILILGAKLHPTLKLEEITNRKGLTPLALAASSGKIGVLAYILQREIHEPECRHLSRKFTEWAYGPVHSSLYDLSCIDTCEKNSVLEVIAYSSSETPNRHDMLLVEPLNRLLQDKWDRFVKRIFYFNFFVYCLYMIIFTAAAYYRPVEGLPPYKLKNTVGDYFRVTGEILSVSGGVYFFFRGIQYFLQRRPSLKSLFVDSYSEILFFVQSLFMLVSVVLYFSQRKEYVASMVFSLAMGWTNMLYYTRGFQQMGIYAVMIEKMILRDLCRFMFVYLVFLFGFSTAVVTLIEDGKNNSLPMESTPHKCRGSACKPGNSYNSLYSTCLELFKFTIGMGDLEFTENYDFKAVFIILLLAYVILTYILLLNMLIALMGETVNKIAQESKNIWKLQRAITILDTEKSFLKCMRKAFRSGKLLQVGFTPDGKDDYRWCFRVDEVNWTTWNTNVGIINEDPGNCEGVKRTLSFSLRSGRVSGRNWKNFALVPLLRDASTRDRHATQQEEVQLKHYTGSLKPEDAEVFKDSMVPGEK
compound,measurement,setting,value
"CC(C)(C)c1ccc(CNC(=S)NCc2ccc(NS(N)(=O)=O)cc2)cc1 [Example 196, 1-(4-t-butylbenzyl)-3-(4-aminosulfonylaminobenzyl)thiourea]",IC50,vanilloid receptor,0.15 µM
"Cn1cccc1CCNC(=S)NCc1ccc(C(C)(C)C)cc1 [Example 5, 1-(4-t-butylbenzyl)-3-[2-(1-methyl-1H-pyrrol-2-yl)ethyl]thiourea]",IC50,vanilloid receptor,1.1 µM
same,inhibition in vivo at 10 mg/kg,Male ICR mice [1],53%
CC(C)(C)c1ccc(CNC(=S)NCCc2cccc(F)c2)cc1 [Example 96],IC50,vanilloid receptor,0.59 µM
same,inhibition in vivo at 10 mg/kg,Male ICR mice [1],58%
"CC(C)(C)c1ccc(CNC(=S)NCc2c(F)ccc(NS(C)(=O)=O)c2F)cc1 [Example 51, 1-(4-t-butylbenzyl)-3-(2,6-difluoro-3-methanesulfonylaminobenzyl)thiourea]",IC50,vanilloid receptor,0.7 µM
"Oc1cc2c(cc1O)CN(C(=S)NCCc1ccc(Cl)cc1)CCC2 [Capsazepine, capsazepine, reference compound]",IC50,vanilloid receptor,0.59 µM
"CC(=O)OCc1cc(C(C)(C)C)ccc1CNC(=S)Nc1ccc(NS(C)(=O)=O)cc1 [Example 70, 1-(2-acetoxymethyl-4-t-butylbenzyl)-3-(4-methanesulfonylaminobenzene)thiourea]",IC50,"vanilloid receptor; Table 1b, neonatal SD rat DRG neurons, inhibition of response to capsaicin 0.5 μM",0.58 µM
"CC(C)(C)c1ccc(CNC(=S)NCc2cc(F)c(N)cc2F)cc1 [Example 9, 1-(4-amino-2,5-difluorobenzyl)-3-(4-t-butylbenzyl)thiourea]",IC50,vanilloid receptor,0.23 µM
"CC(C)(C)c1ccc(CNC(=S)NCc2ccc(NS(C)(=O)=O)c(F)c2)cc1 [Example 13, 1-(4-t-butylbenzyl)-3-(3-fluoro-4-methanesulfonylaminobenzyl)thiourea]",Anti-inflammtory effect (% Inhibition),Male ICR mice [2],74%
same,IC50,vanilloid receptor; [3],0.037 µM
same,Anti-ulcerous effect (% inhibition),Male SD rats,30%
same,inhibition in vivo at 10 mg/kg,Male ICR mice [1],82%
"CNC(=C[N+](=O)[O-])NCCSCc1ccc(CN(C)C)o1 [Ranitidine, ranitidine, reference compound]",Anti-ulcerous effect (% inhibition),Male SD rats,4%
COc1cc(CCCN(Cc2ccccc2)/C(S)=N/CCc2ccccc2)ccc1O [Example 152],IC50,vanilloid receptor,0.95 µM
"CC(C)(C)c1ccc(CCC(=O)NCc2ccc(NS(C)(=O)=O)c(F)c2)cc1 [Example 193, N-(3-fluoro-4-methanesulfonylaminobenzyl) 3-(4-t-butylphenyl)propionamide]",IC50,vanilloid receptor,0.21 µM
CC(C)(C)c1ccc(CNC(=S)NCc2ccc(NS(C)(=O)=O)c(Cl)c2)cc1 [Example 17],Anti-inflammtory effect (% Inhibition),Male ICR mice [2],80%
same,IC50,vanilloid receptor; [3],0.0084 µM
same,Anti-ulcerous effect (% inhibition),Male SD rats,58%
same,inhibition in vivo at 10 mg/kg,Male ICR mice [1],98%
"CC(C)(C)c1ccc(CNC(=S)NCc2c(F)c(F)c(NS(C)(=O)=O)c(F)c2F)cc1 [Example 32, 1-(4-t-butylbenzyl)-3-(2,3,5,6-tetrafluoro-4-methanesulfonylaminobenzyl)thiourea]",IC50,vanilloid receptor,0.031 µM
Cn1cc(NS(C)(=O)=O)cc1CNC(=S)NCc1ccc(C(C)(C)C)cc1 [Example 134],IC50,vanilloid receptor,0.81 µM
"CC(C)(C)c1ccc(CNC(=S)NCc2ccc(NS(C)(=O)=O)c(C(=O)O)c2)cc1 [Example 19, 1-(4-t-butylbenzyl)-3-(3-carboxyl-4-methanesulfonylaminobenzyl)thiourea]",IC50,vanilloid receptor,0.0058 µM
COC(=O)c1cc(CNC(=S)NCc2ccc(C(C)(C)C)cc2)ccc1NS(C)(=O)=O [Example 18],IC50,vanilloid receptor; [3],0.72 µM
CC(C)(C)c1ccc(CNC(=S)NCc2cc(F)ccc2F)cc1 [Example 90],IC50,vanilloid receptor,0.42 µM
"CC(C)(C)c1ccc(CNC(=S)NCc2cc(F)c(NS(C)(=O)=O)cc2F)cc1 [Example 33, 1-(4-t-butylbenzyl)-3-(2,5-difluoro-4-methanesulfonylaminobenzyl)thiourea]",Anti-inflammtory effect (% Inhibition),Male ICR mice [2],66%
same,IC50,vanilloid receptor,0.11 µM
same,Anti-ulcerous effect (% inhibition),Male SD rats,31%
"CS(=O)(=O)Nc1ccc(CNC(=S)NCCc2ccccc2)cc1F [Example 15, 1-phenethyl-3-(3-fluoro-4-methanesulfonylaminobenzyl)thiourea]",IC50,vanilloid receptor,1.2 µM
"CC(C)(C)c1ccc(CNC(=S)NCCc2ccc(NS(C)(=O)=O)cc2)cc1 [Example 36, 1-(4-t-butylbenzyl)-3-(4-methanesulfonylaminophenethyl)thiourea]",IC50,vanilloid receptor,1.1 µM
"CNS(=O)(=O)Nc1ccc(C/N=C(\S)NCc2ccc(C(C)(C)C)cc2)cc1 [Example 194, 1-(4-t-butylbenzyl)-3-(4-methylaminosulfonylaminobenzyl)thiourea]",IC50,vanilloid receptor,0.31 µM
CC(C)(C)c1ccc(CNC(=S)NCCc2ccccn2)cc1 [Example 83],IC50,vanilloid receptor,1.1 µM
same,inhibition in vivo at 10 mg/kg,Male ICR mice [1],85%
CC(C)(C)c1ccc(CNC(=NC#N)NCc2ccc(NS(C)(=O)=O)cc2)cc1 [Example 178],IC50,vanilloid receptor,0.11 µM
"COc1ccc2c(c1)c(CC(=O)O)c(C)n2C(=O)c1ccc(Cl)cc1 [Indomethacin, indomethacin, reference compound]",Anti-inflammtory effect (% Inhibition),Male ICR mice [2],74%
same,inhibition in vivo at 3 mg/kg,Male ICR mice [1],94%
COc1cc(CCCN(C(=S)NCCc2ccccc2)C(c2ccccc2)c2ccccc2)ccc1O [Example 161],IC50,vanilloid receptor,0.46 µM
same,inhibition in vivo at 1 mg/kg,Male ICR mice [1]; dose 1 mg/kg intraperitoneally,73%
"Cc1ncsc1CCNC(=S)NCc1ccc(C(C)(C)C)cc1 [Example 73, 1-(4-t-butylbenzyl)-3-[2-(4-methylthiazol-5-yl)ethyl]thiourea]",Anti-inflammtory effect (% Inhibition),Male ICR mice [2],77%
same,IC50,vanilloid receptor,1.2 µM
same,Anti-ulcerous effect (% inhibition),Male SD rats,22%
same,inhibition in vivo at 10 mg/kg,Male ICR mice [1],88%
COC(=O)c1cccc(CNC(=S)NCc2ccc(C(C)(C)C)cc2)c1 [Example 30],IC50,vanilloid receptor,1.5 µM
"CC(C)(C)c1ccc(CNC(=S)NCc2cccc(NS(C)(=O)=O)c2)cc1 [Example 52, 1-(4-t-butylbenzyl)-3-(3-methanesulfonylaminobenzyl)thiourea]",inhibition in vivo at 10 mg/kg,Male ICR mice [1],94%
CC(C)(C)c1ccc(CNC(=S)NCc2ccc(NS(C)(=O)=O)cc2)cc1 [Example 44],Anti-inflammtory effect (% Inhibition),Male ICR mice [2],83%
same,Anti-ulcerous effect (% inhibition),Male SD rats,36%
same,inhibition in vivo at 3 mg/kg,Male ICR mice [1],92%
